Activity calls are given as the source filed them.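 Rule for the calls: active = compounds lowering cell viability whose fitted half-effect dose is at most ten times the top tested dose; inconclusive = flat curve with moderate viability loss, or a poor fit; inactive = the rest.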
System: not listed separately
Experiment: viability loss in DRD cells, dose response, cell-based, secondary screen, plate reader, dry powder, set 4 (AID 540315)
Conditions: DRD HRASV12-transformed BJ fibroblasts viability, Alamar Blue, 48 h; at 48 µM (top of the series)

SMILES	activity change, negative = viability loss
Cc1onc(C(=O)N2CCN(Cc3ccccc3)CC2)c1[N+](=O)[O-]	-2.4% (inactive)

System: DRD HRASV12-transformed BJ fibroblasts viability, Alamar Blue, 48 h
Experiment: as above
Conditions: not given

SMILES	AC50
CCOc1ccccc1-n1c(C(C)N2CCN(C(=O)COc3ccc(Cl)cc3)CC2)nc2ccccc2c1=O (centres undefined)	2.16 µM
Cc1onc(C(=O)NCCNC(c2ccccc2)c2ccccc2)c1[N+](=O)[O-]	43.8 µM
COc1ccc(C(c2ccc(OC)cc2)N2CCN(C(=O)c3noc(C)c3[N+](=O)[O-])CC2)cc1	4.37 µM
Cc1onc(C(=O)N2CCN(C(c3ccc(Cl)cc3)c3ccc(Cl)cc3)CC2)c1[N+](=O)[O-]	0.287 µM
Cc1onc(C(=O)N2CCN(C(c3ccccc3)c3ccccc3)CC2)c1[N+](=O)[O-]	2.64 µM
Cc1onc(C(=O)N2CCN(C(c3ccc(F)cc3)c3ccc(F)cc3)CC2)c1[N+](=O)[O-]	0.784 µM
Cc1onc(CC(=O)N2CCN(C(c3ccc(F)cc3)c3ccc(F)cc3)CC2)c1[N+](=O)[O-]	30.9 µM
Cc1onc(C(=O)N2CCCN(C(c3ccccc3)c3ccccc3)CC2)c1[N+](=O)[O-]	3.87 µM
O=C(c1ccc([N+](=O)[O-])o1)N1CCN(C(c2ccc(F)cc2)c2ccc(F)cc2)CC1	10.7 µM
COc1ccc(C(c2ccc(OC)cc2)N2CCN(C(=O)c3ccc([N+](=O)[O-])o3)CC2)cc1	5.84 µM
Cc1onc(C(=O)N2CCN(C(c3ccccc3)c3ccc(Cl)cc3)CC2)c1[N+](=O)[O-] (centres undefined)	0.585 µM
COC(=O)c1ccc([C@@H]2c3[nH]c4ccccc4c3C[C@@H](C(=O)OC)N2C(=O)CCl)cc1	0.604 µM
O=C(NCCNC(c1ccccc1)c1ccccc1)c1ccc([N+](=O)[O-])o1	5.59 µM
